From patent publication US20230250098A1 (priority 2021, published 2023)
“Also recorded” adds a separate entry of the source. Counter-ions that a name gives are not always drawn.

Columns and labels:
HA-mouse μOP = target: T1, HA-mouse μOP (Mus musculus, UniProt P42866); experiment: GloSensor cAMP inhibition assay in transfected HEK cells; type: cell-based; conditions: for cAMP α: efficacy normalized to positive control DAMGO; for IC50 / cAMP pIC50: inhibition of forskolin-induced cAMP
T1 construct: HA (N); expressed in transfected cells; host or cells: HEK cells, transient transfection together with pGloSensor22F
T1 sequence (P42866 whole entry): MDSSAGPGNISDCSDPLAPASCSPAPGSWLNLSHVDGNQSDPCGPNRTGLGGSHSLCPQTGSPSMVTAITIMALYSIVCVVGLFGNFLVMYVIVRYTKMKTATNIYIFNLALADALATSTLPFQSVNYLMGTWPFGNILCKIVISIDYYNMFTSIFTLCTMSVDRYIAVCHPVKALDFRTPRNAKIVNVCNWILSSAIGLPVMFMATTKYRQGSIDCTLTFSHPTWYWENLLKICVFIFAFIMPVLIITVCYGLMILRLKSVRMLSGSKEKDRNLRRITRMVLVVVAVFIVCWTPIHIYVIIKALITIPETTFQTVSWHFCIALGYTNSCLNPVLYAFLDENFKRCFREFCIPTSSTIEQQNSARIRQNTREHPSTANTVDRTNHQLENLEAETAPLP

μOP = μOP (Homo sapiens, UniProt P35372); type: binding; design: membranes isolated; conditions: for Binding pKi / Ki: [3H]DAMGO, CHO membranes; for Ki: read-out: Binding Ki
Sequence of μOP (P35372 whole entry): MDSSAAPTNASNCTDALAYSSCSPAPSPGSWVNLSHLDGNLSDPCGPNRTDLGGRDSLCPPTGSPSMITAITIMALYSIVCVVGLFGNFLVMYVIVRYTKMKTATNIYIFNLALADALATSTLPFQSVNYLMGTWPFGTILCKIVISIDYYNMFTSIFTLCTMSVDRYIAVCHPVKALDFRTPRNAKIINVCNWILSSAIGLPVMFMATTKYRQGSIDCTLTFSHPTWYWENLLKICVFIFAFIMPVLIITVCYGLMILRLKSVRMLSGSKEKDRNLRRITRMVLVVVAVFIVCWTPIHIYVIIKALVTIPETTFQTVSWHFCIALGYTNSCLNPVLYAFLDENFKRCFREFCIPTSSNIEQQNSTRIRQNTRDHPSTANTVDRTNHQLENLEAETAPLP

δOP [1] = target: T2, δOP (Homo sapiens, UniProt P41143); type: binding; design: membranes isolated; conditions: for Binding pKi / Ki: [3H]DPDPE, CHO membranes; for Ki: read-out: Binding Ki
T2 sequence (P41143 whole entry): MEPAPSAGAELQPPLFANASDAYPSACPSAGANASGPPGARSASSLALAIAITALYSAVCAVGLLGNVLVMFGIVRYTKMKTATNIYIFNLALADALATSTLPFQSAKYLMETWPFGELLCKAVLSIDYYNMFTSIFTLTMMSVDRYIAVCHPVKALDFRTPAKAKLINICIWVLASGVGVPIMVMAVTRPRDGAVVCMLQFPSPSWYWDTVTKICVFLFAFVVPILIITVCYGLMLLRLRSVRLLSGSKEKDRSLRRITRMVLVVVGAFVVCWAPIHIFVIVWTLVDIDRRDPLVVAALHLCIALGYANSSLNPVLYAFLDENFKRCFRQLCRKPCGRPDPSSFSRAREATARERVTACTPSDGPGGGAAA

κOP [2] = target: T3, κOP (Homo sapiens, UniProt P41145); type: binding; design: membranes isolated; conditions: for Ki: read-out: Binding Ki
T3 sequence (P41145 whole entry): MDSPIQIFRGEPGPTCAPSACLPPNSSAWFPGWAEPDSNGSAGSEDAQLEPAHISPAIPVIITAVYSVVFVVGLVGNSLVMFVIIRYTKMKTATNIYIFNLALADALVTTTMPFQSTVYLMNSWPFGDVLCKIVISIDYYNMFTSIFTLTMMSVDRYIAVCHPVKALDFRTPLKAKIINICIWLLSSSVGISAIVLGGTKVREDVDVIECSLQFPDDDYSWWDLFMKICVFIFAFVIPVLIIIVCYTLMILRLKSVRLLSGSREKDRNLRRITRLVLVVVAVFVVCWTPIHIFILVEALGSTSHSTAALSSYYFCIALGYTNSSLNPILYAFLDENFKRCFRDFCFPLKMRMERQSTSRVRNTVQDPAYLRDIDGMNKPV

FLAG-mouse δOP = target: T4, FLAG-mouse δOP (Mus musculus, UniProt P32300); experiment: GloSensor cAMP inhibition assay in transfected HEK cells; type: cell-based; conditions: for cAMP α: efficacy normalized to positive control Leu-Enk; for IC50 / cAMP pIC50: inhibition of forskolin-induced cAMP
T4 construct: FLAG (N); expressed in transfected cells; host or cells: HEK cells (HEK-293), transient transfection together with pGloSensor22F
T4 sequence (P32300 whole entry): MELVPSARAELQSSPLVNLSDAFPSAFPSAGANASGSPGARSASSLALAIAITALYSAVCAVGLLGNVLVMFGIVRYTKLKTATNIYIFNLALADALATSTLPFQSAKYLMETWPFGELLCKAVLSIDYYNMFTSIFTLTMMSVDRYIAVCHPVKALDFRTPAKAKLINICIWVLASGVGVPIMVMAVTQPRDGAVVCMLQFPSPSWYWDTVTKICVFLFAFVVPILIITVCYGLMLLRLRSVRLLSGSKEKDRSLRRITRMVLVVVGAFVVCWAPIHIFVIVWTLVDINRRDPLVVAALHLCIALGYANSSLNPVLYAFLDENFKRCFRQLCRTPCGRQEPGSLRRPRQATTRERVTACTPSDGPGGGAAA

FLAG-mouse κOP = target: T5, FLAG-mouse κOP (Mus musculus, UniProt P33534); type: cell-based; conditions: for IC50: read-out: cAMP IC50
T5 construct: FLAG (N); expressed in transfected cells; host or cells: HEK cells, transient transfection together with pGloSensor22F
T5 sequence (P33534 whole entry): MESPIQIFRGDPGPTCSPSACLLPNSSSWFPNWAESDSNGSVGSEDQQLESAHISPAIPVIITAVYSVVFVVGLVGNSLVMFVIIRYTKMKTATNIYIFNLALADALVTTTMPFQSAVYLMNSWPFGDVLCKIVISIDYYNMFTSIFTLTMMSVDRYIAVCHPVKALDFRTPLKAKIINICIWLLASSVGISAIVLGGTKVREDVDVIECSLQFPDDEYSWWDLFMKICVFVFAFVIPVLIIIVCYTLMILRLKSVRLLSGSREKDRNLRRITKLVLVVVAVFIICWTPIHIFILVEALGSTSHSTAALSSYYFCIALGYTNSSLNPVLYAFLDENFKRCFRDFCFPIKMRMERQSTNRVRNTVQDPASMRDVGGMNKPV

C57Bl/6 wild-type mice [3] = experiment: Two-bottle choice alcohol paradigm (drinking in the dark, 10% ethanol vs water); type: in vivo, mouse
δOP KO mice [4] = experiment: Two-bottle choice alcohol paradigm in δOP KO mice; type: in vivo, mouse; conditions: male δOP KO mice
male mice = experiment: Tail flick thermal nociception assay; type: in vivo, mouse
WT mice [5] = experiment: Locomotor evaluation
wildtype mice = experiment: Seizure assay (modified racine scale); conditions: 10 mg·kg^−1
male, WT mice = experiment: Conditioned place preference (brief and extended); conditions: 10 mg·kg^−1; four conditioning sessions each for drug and vehicle
δOP [6] = target: T2, δOP; type: cell-based
C57Bl/6 wild-type mice [7] = conditions: cited from earlier work; for alcohol consumption, in words (previous reports): dose not stated
κOP [8] = target: T3, κOP; type: cell-based
WT mice [9] = experiment: Accelerating rotarod test; conditions: 30 mg·kg^−1 i.p.
δOP KO mice [10] = experiment: Accelerating rotarod test in δOP KO mice
[11] = 30 mg·kg^−1 (7-hydroxypaynantheine s.c., speciociliatine i.p.), WT male mice

For `C=CC1CN2CCC3(Nc4cccc(OC)c4C3=O)C2CC1C(=COC)C(=O)OC` (stereo not shown) [PAYN PI, Paynantheine Pseudoindoxyl], the “cAMP inhibition at the μOP, in words” value (HA-mouse μOP) was “lowest potency at the μOP”, the “cAMP α” value (HA-mouse μOP) was 60 ± 6 and the IC50 (HA-mouse μOP) was 4820 nM. For the same compound, the “cAMP pIC50” value (HA-mouse μOP) was 5.3 ± 0.2 (4), the “Binding pKi” value (μOP) was 6.2 ± 0.1 (3) and the Ki (μOP) was 680 nM. The “Binding pKi” value (δOP [1]) was 6.0 ± 0.1 (3), the Ki (δOP [1]) was 920 nM and the “Binding pKi” value (κOP [2]) was 5.9 ± 0.1 (4). For the same compound, the Ki (κOP [2]) was 1310 nM.
For `CC[C@H]1CN2CC[C@@]3(O)C(=Nc4cccc(OC)c43)[C@@H]2C[C@@H]1/C(=C\OC)C(=O)OC` [7OH SPG, 7-hydroxyspeciogynine], the “cAMP inhibition at the μOP, in words” value (HA-mouse μOP) was “lowest potency at the μOP; also recorded: reduced μOP potency”, the “cAMP α” value (HA-mouse μOP) was 66 ± 6 and the IC50 (HA-mouse μOP) was 2400 nM. For the same compound, the “cAMP pIC50” value (HA-mouse μOP) was 6.2±0.3, the “cAMP inhibition at the δOP, in words” value (FLAG-mouse δOP) was “strongest activator at the δOP” and the “difference in potency at the δOP between 7-hydroxyspeciogynine and 7-hydroxypaynantheine” value (FLAG-mouse δOP) was 10 fold. For the same compound, the “cAMP α” value (FLAG-mouse δOP) was 76 ± 6, the IC50 (FLAG-mouse δOP) was 2270 nM and the “cAMP pIC50” value (FLAG-mouse δOP) was 5.6 ± 0.1 (6). The “cAMP pIC50” value (FLAG-mouse κOP) was 5.1 ± 0.3 (3), the “cAMP α” value (FLAG-mouse κOP) was 80 ± 20 and the IC50 (FLAG-mouse κOP) was 7710 nM. For the same compound, the “ethanol consumption, in words” value (C57Bl/6 wild-type mice [3]; 3 mg·kg^−1 s.c., WT male and female mice) was “reduced alcohol intake; also recorded: efficacious activity; also recorded: dose-dependently decreased ethanol consumption; also recorded: significantly decreased the percent ethanol consumption”, the “average decrease of ethanol consumption” value (C57Bl/6 wild-type mice [3]; 10 mg·kg^−1, WT mice) was 1.2 ± 0.2 g/kg and the “percent reduction of ethanol consumption” value (C57Bl/6 wild-type mice [3]; 10 mg·kg^−1, WT mice) was 40±7%. The “ethanol consumption, in words” value (C57Bl/6 wild-type mice [3]; 10 mg·kg^−1 s.c., WT mice) was “reduced alcohol intake; also recorded: dose-dependently decreased ethanol consumption; also recorded: significantly decreased the percent ethanol consumption”, the “ethanol consumption in δOP KO mice, in words” value (δOP KO mice [4]; 3 mg·kg^−1) was “did not significantly decrease ethanol consumption; also recorded: alcohol consumption was not significantly altered” and the “ethanol consumption in δOP KO mice, in words” value (δOP KO mice [4]; 10 mg·kg^−1) was “did not significantly decrease ethanol consumption; also recorded: alcohol consumption was not significantly altered”. The “block of morphine analgesia (antagonist mode)” value (male mice; 10 mg·kg^−1, then morphine 6 mg·kg^−1 s.c. 10 minutes later) was “did not produce antinociception (paired, two-tailed t-test, t=0.6193, df=9, p=0.5511) or block morphine analgesia”, the “antinociception (agonist mode)” value (male mice; 10 mg·kg^−1, 30 minutes after drug) was “did not produce antinociception” and the “μOP affinity, in words” value (μOP) was “strongest μOP affinity”. The “δOP binding, in words” value (δOP [1]) was “improved binding relative to speciogynine”, the “Binding pKi” value (δOP [1]) was 6.3±0.1 and the Ki (δOP [1]) was 460 nM. The “Binding pKi” value (κOP [2]) was 5.8 ± 0.2 (3), the Ki (κOP [2]) was 1630 nM and the “ambulation / locomotor activity” value (WT mice [5]; 10 mg·kg^−1) was “did not significantly alter ambulation”. For the same compound, the seizure activity (wildtype mice) was “did not significantly alter ambulation (paired, two-tailed t-test, t=0.7552, df=6, p=0.4787) (FIG. 5B) or induce seizures” and the “conditioned place preference, extended protocol” value (male, WT mice) was “did not develop conditioned place preference”.
With `C=CCN1CC[C@]23c4c5ccc(O)c4O[C@H]2C(=O)CC[C@@]3(O)[C@H]1C5` [naloxone, naloxone hydrochloride] the “block of 7-hydroxymitragynine-induced hyperlocomotion” value (WT mice [5]; dose of naloxone considered to be μOP-selective) was “completely blocked”.
In the case of `CC[C@H]1CN2CC[C@]3(Nc4cccc(OC)c4C3=O)[C@@H]2C[C@@H]1/C(=C\OC)C(=O)OC` [SPG PI, Speciogynine Pseudoindoxyl], the “cAMP α” value (HA-mouse μOP) is reported as 58 ± 4, the IC50 (HA-mouse μOP) is reported as 230 nM and the “cAMP pIC50” value (HA-mouse μOP) is reported as 6.6 ± 0.2 (5). For the same compound, the “cAMP α” value (FLAG-mouse δOP) was 80 ± 20, the IC50 (FLAG-mouse δOP) was 8530 nM and the “cAMP pIC50” value (FLAG-mouse δOP) was 5.1 ± 0.3 (4). The “cAMP pIC50” value (FLAG-mouse κOP) was 4.7 ± 0.5 (4), the “cAMP α” value (FLAG-mouse κOP) was 80 ± 30 and the IC50 (FLAG-mouse κOP) was 20600 nM. For the same compound, the “Binding pKi” value (μOP) was 7.1 ± 0.1 (3), the Ki (μOP) was 77 nM and the “Binding pKi” value (δOP [1]) was 6.0 ± 0.1 (3). For the same compound, the Ki (δOP [1]) was 940 nM, the “Binding pKi” value (κOP [2]) was 6.1 ± 0.1 (3) and the Ki (κOP [2]) was 750 nM.
In the case of `CC[C@H]1CN2CCc3c([nH]c4cccc(OC)c34)[C@@H]2C[C@@H]1/C(=C\OC)C(=O)OC` [SPG, speciogynine, reference compound], the “alcohol intake, in words” value (C57Bl/6 wild-type mice [3]; systemic (i.p.) injection, modified 2-bottle choice, male C57BL/6 mice, FIG. 1) is reported as “reduce alcohol intake”, the “Binding pKi” value (δOP [1]) is reported as 5.1 ± 0.1 (6) and the Ki (δOP [1]) is reported as 5340 nM. The “Binding pKi” value (κOP [2]) was 5.4 ± 0.1 (5) and the Ki (κOP [2]) was 3000 nM.
With Leu-enkephalin [reference compound] the “cAMP α” value (FLAG-mouse δOP) was 100 and the “β-arrestin 2 α” value (δOP [6]; normalized to positive control Leu-Enk) was 100.
For `Oc1ccc2c3c1O[C@H]1c4[nH]c5ccccc5c4C[C@@]4(O)[C@@H](C2)N(CC2CC2)CC[C@]314` [naltrindole], the “alcohol intake, in words (previous reports)” value (C57Bl/6 wild-type mice [7]; 10 mg·kg^−1) is given as “not decrease alcohol intake”.
With `C=C[C@H]1CN2CC[C@@]3(O)C(=Nc4cccc(OC)c43)[C@@H]2C[C@@H]1/C(=C\OC)C(=O)OC` [70H PAYN, 7-Hydroxypaynantheine] the “cAMP inhibition at the μOP, in words” value (HA-mouse μOP) was “lowest potency at the μOP; also recorded: reduced μOP potency”, the “cAMP α” value (HA-mouse μOP) was 80 ± 40 and the IC50 (HA-mouse μOP) was 21800 nM. The “cAMP pIC50” value (HA-mouse μOP) was 4.7±0.5, the “cAMP α” value (FLAG-mouse δOP) was 70 ± 20 and the IC50 (FLAG-mouse δOP) was 5740 nM. For the same compound, the “cAMP pIC50” value (FLAG-mouse δOP) was 5.2 ± 0.3 (5), the “cAMP inhibition at the κOP, in words” value (FLAG-mouse κOP) was “not detected at the tested dose range” and the “ethanol consumption, in words” value (C57Bl/6 wild-type mice [3]; 10 mg·kg^−1 s.c., WT mice, listed as 7-hydroxypaynanthiene) was “not 10 mg·kg^−1”. For the same compound, the “ethanol consumption, in words” value (C57Bl/6 wild-type mice [3]; [11]) was “significantly reduce alcohol intake; also recorded: significantly decreased ethanol consumption”, the “ethanol consumption, in words” value (C57Bl/6 wild-type mice [3]; 30 mg·kg^−1 (7-hydroxypaynantheine s.c., speciociliatine i.p.), WT male mice, listed as 7-hydroxypaynanthiene) was “efficacious activity; also recorded: decreased the percent ethanol consumption” and the “average decrease of ethanol consumption” value (C57Bl/6 wild-type mice [3]; 30 mg·kg^−1, WT mice) was 1.1 ± 0.3 g/kg. The “percent reduction of ethanol consumption” value (C57Bl/6 wild-type mice [3]; 30 mg·kg^−1, WT mice) was 40±11%, the “ethanol consumption in δOP KO mice, in words” value (δOP KO mice [4]; 30 mg·kg^−1) was “did not significantly decrease ethanol consumption; also recorded: alcohol consumption was not significantly altered” and the “Binding pKi” value (μOP) was 5.2 ± 0.1 (3). The Ki (μOP) was 6150 nM, the “δOP binding, in words” value (δOP [1]) was “a magnitude weaker in binding the δOP than 7-hydroxyspeciogynine” and the “Binding pKi” value (δOP [1]) was 4.9±0.2. The Ki (δOP [1]) was 12700 nM, the “Binding pKi” value (κOP [2]) was 5.1 ± 0.1 (3) and the Ki (κOP [2]) was 7460 nM.
In the case of `CN1CC[C@]2(c3cccc(O)c3)Cc3nc4ccccc4cc3C[C@H]2C1` [TAN-67], the “alcohol consumption, in words (previous reports)” value (C57Bl/6 wild-type mice [7]) is listed as “efficaciously reduces alcohol use”.
In the case of `COc1ccsc1CNCC[C@@]1(c2ccccn2)CCOC2(CCCC2)C1` [Oliceridine], the “alcohol consumption, in words (previous reports)” value (C57Bl/6 wild-type mice [7]) is listed as “not decrease alcohol consumption”.
For `CC[C@@H]1CN2CCc3c([nH]c4cccc(OC)c34)[C@H]2C[C@@H]1/C(=C\OC)C(=O)OC` [SPECIO, speciociliatine], the “β-arrestin2 recruitment, in words” value (δOP [6]) was “no β-arrestin2 recruitment was detected”, the “β-arrestin2 recruitment, in words” value (κOP [8]) was “no β-arrestin2 recruitment was detected” and the “ethanol consumption, in words” value (C57Bl/6 wild-type mice [3]; [11]) was “significantly decreased ethanol consumption; also recorded: significant and sharp decrease in alcohol consumption”. The “average decrease of ethanol consumption” value (C57Bl/6 wild-type mice [3]; 30 mg·kg^−1, WT mice) was 2.5 ± 0.3 g/kg, the “percent reduction of ethanol consumption” value (C57Bl/6 wild-type mice [3]; 30 mg·kg^−1, WT mice) was 90±3% and the “δOP binding, in words” value (δOP [1]) was “displayed binding at the δOP”. The “Binding pKi” value (δOP [1]) was 5.4±0.1, the Ki (δOP [1]) was 4340 nM and the “Binding pKi” value (κOP [2]) was 6.2 ± 0.1 (4). The Ki (κOP [2]) was 590 nM, the “rotarod performance (time spent on the rod), in words” value (WT mice [9]) was “significantly reduced the ability of treated wildtype mice to perform in the rotarod assessment; also recorded: significantly impairs motor incoordination; also recorded: significantly decreased time spent on the rod” and the “time of full recovery on rotarod” value (WT mice [9]; post-injection) was 120 min. The “death and seizures in the rotarod assay” value (δOP KO mice [10]; 30 mg/kg i.p.) was “one δOP KO mouse died after experiencing severe, level 5-6 seizures” and the “rotarod performance, in words” value (δOP KO mice [10]; 30 mg·kg^−1 i.p.) was “The same effect was observed in δOP KO mice; also recorded: significantly impairs motor incoordination; also recorded: significantly decreased time spent on the rod”.
